The term GI50 denotes the concentration at which growth is held to half of that of the control.

The structures appear in SMILES notation.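 Results reflect a 48-hour exposure of cells in 96-well plates to compound at five concentrations. GI50: concentration for 50% inhibition of growth.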 Activity calls are given as the source filed them. No stated cut-off is given here; in the data, active = GI50 up to about 1.1 µM and inactive = higher. Some results are limits rather than exact numbers.

The values below come from ChEMBL document CHEMBL1201862, “PubChem BioAssay data set” (2004).

Among the test systems are HCC 2998; NCI/ADR-RES; KM12; T47D; MOLT-4; SK-MEL-28; UACC-62; SNB-19; MDA-MB-231; CAKI-1; COLO 205; NCI-H522; SNB-75; SN12C; SW-620; SR; HCT-15; M14; SF-539; HL-60.
Assay in all cases: DTP human tumour cell line panel, 48 h

Take `N#C/C(=C1/c2cc([N+](=O)[O-])ccc2-c2c1cc([N+](=O)[O-])cc2[N+](=O)[O-])N1CCCCC1`: the GI50 was > 100 µM (inactive) in the assay with HCC 2998; 51.3 µM (inactive) in the assay with NCI/ADR-RES; > 100 µM (inactive) with KM12; > 100 µM (inactive) with T47D; > 100 µM (inactive) with MOLT-4; > 100 µM (inactive) with SK-MEL-28. Further, the GI50 in the assay with UACC-62 was 68.4 µM (inactive); in the assay on SNB-19, > 100 µM (inactive); in the assay on MDA-MB-231, > 100 µM (inactive); in the assay on CAKI-1, > 100 µM (inactive); in the assay on COLO 205 it was > 100 µM (inactive); in the assay with NCI-H522 it was 46.6 µM (inactive). In addition, the GI50 is 16.9 µM (inactive) in the assay on SNB-75; > 100 µM (inactive) in the assay on SN12C; > 100 µM (inactive) in the assay with SW-620; 1.34 µM (inactive) in the assay with SR; more than 100 µM in the assay with HCT-15; 86.9 µM (inactive) with M14.
`COc1ccc2nc3c([N+](=O)[O-])ccc(NCCN(C)C)c3c(N)c2c1`: the GI50 with NCI/ADR-RES is 0.847 µM (active); in the assay on KM12, 0.469 µM (active); in the assay with T47D it was 1.17 µM (inactive); in the assay on SF-539 it was 1.56 µM (inactive); with MOLT-4, 0.479 µM (active); in the assay on SK-MEL-28, 2.14 µM (inactive). For the same molecule, the GI50 in the assay on UACC-62 was 1.82 µM (inactive); with SNB-19, 1.84 µM (inactive); in the assay on MDA-MB-231, 0.234 µM (active); with CAKI-1 it was 1.8 µM (inactive); in the assay on COLO 205, 0.859 µM (active); in the assay on HL-60 it was 0.194 µM (active). In addition, the GI50 in the assay on SNB-75 was 1.08 µM (active); in the assay with SN12C it was 1.33 µM (inactive); in the assay on SW-620, 0.181 µM (active); in the assay on SR, 0.679 µM (active); in the assay on HCT-15, 1.16 µM; in the assay on M14, 1.49 µM (inactive).
With `C/C(Cl)=N\OC(=O)Nc1ccc(C)cc1`, the GI50 in the assay with HCC 2998 is 16.9 µM (inactive); in the assay on NCI/ADR-RES, 19.7 µM (inactive); in the assay on KM12 it was 17.2 µM (inactive); in the assay on T47D, 16 µM (inactive); with SF-539, 18.7 µM (inactive); in the assay on MOLT-4 it was > 10 µM (inactive). For the same molecule, the GI50 in the assay with SK-MEL-28 is 14.5 µM (inactive); in the assay with SNB-19 it was > 100 µM (inactive); in the assay with MDA-MB-231 it was 20.3 µM (inactive); in the assay with CAKI-1, 16.7 µM (inactive); in the assay on COLO 205 it was 16.2 µM (inactive); in the assay on HL-60, 2.22 µM (inactive). The GI50 in the assay with SNB-75 was 12.8 µM (inactive); with SN12C, 15.7 µM (inactive); in the assay with SW-620 it was 16.8 µM (inactive); in the assay on SR, 9.64 µM (inactive); in the assay with HCT-15 it was 15.4 µM; in the assay with M14, 17.2 µM (inactive).
As to `Nc1nc(N)nc(CC(=O)O)n1`, the GI50 in the assay on NCI/ADR-RES, in the assay with KM12, in the assay on T47D, in the assay with SF-539, in the assay with MOLT-4 and in the assay with SK-MEL-28 was > 100 µM (inactive) each time. Also, the GI50 with UACC-62, in the assay with SNB-19, with MDA-MB-231, in the assay with CAKI-1, in the assay on COLO 205 and in the assay on NCI-H522 was > 100 µM (inactive) throughout. Further, the GI50 was > 100 µM (inactive) with HL-60; > 100 µM (inactive) in the assay on SNB-75; > 100 µM (inactive) in the assay with SN12C; > 100 µM (inactive) in the assay on SW-620; > 100 µM (inactive) in the assay with SR; more than 100 µM with HCT-15. Further, in the assay with M14, the GI50 is > 100 µM (inactive).
For `CC(=O)Oc1cc(/C=C/c2ccc(O)cc2)cc(OC(C)=O)c1`, the GI50 with NCI/ADR-RES is 16.3 µM (inactive); with KM12 it was 24.1 µM (inactive); in the assay on T47D it was 51.3 µM (inactive); in the assay with SF-539, 12.8 µM (inactive); in the assay on MOLT-4, 16.8 µM (inactive); with SK-MEL-28, 66.5 µM (inactive). In addition, the GI50 was 18.2 µM (inactive) in the assay with UACC-62; 55.8 µM (inactive) in the assay on SNB-19; 25.5 µM (inactive) with MDA-MB-231; 35.7 µM (inactive) in the assay on CAKI-1; > 100 µM (inactive) with COLO 205; 26 µM (inactive) in the assay with NCI-H522. Further, the GI50 is 18.8 µM (inactive) in the assay with HL-60; 22.1 µM (inactive) in the assay with SNB-75; 19 µM (inactive) with SN12C; 26.1 µM (inactive) with SW-620; 17.3 µM (inactive) with SR; 26.5 µM with HCT-15. The GI50 in the assay with M14 is 64.6 µM (inactive).
Take `O=C1c2ccccc2-n2nnnc2C2CSCN12` (centres undefined): the GI50 in the assay on HCC 2998, with NCI/ADR-RES, in the assay with KM12, in the assay with T47D, with MOLT-4 and in the assay on SK-MEL-28 was > 100 µM (inactive) each time. Besides, the GI50 in the assay with UACC-62, with SNB-19, in the assay on MDA-MB-231, in the assay with CAKI-1, in the assay on COLO 205 and in the assay on NCI-H522 was > 100 µM (inactive) throughout. Further, the GI50 in the assay on SNB-75 was > 100 µM (inactive); in the assay with SN12C, > 100 µM (inactive); in the assay with SW-620 it was > 100 µM (inactive); in the assay on SR it was > 100 µM (inactive); in the assay with HCT-15, more than 100 µM; in the assay with M14, > 100 µM (inactive).
On to `COc1cc(C/C=C/c2ccccc2)c(OC)cc1O` [VIOLASTYRENE], for which the GI50 was 16.7 µM (inactive) in the assay with HCC 2998; 26.5 µM (inactive) in the assay with NCI/ADR-RES; 17 µM (inactive) in the assay on KM12; 17.4 µM (inactive) in the assay on T47D; 17.9 µM (inactive) in the assay with SF-539; 18.6 µM (inactive) with MOLT-4. For the same molecule, the GI50 was 18.7 µM (inactive) in the assay with SK-MEL-28; 16.8 µM (inactive) in the assay on UACC-62; 30.5 µM (inactive) in the assay with SNB-19; 15.1 µM (inactive) with MDA-MB-231; 26.2 µM (inactive) in the assay with CAKI-1; 22.3 µM (inactive) with COLO 205. The GI50 in the assay with NCI-H522 was 20.9 µM (inactive); in the assay on HL-60, 23.6 µM (inactive); with SNB-75 it was 24.6 µM (inactive); with SN12C it was 19.1 µM (inactive); in the assay on SW-620 it was 20 µM (inactive); in the assay on HCT-15, 17.9 µM. Also, in the assay on M14, the GI50 is 19.2 µM (inactive).
As to `Cc1nnc2nc(-c3ccc(Cl)cc3Cl)cc(-c3ccc(Cl)cc3)n12`, the GI50 in the assay with NCI/ADR-RES is 87.5 µM (inactive); in the assay on KM12 it was > 100 µM (inactive); in the assay on T47D it was 89.1 µM (inactive); in the assay with SF-539, > 100 µM (inactive); with MOLT-4, 15.5 µM (inactive); with SK-MEL-28, 21 µM (inactive). Also, the GI50 in the assay with UACC-62 is > 100 µM (inactive); in the assay with SNB-19 it was > 100 µM (inactive); in the assay on MDA-MB-231 it was 47.5 µM (inactive); in the assay with CAKI-1, 66.5 µM (inactive); in the assay with COLO 205, 13.7 µM (inactive); in the assay on HL-60, > 100 µM (inactive). In addition, the GI50 in the assay with SN12C is > 100 µM (inactive); in the assay on SW-620 it was > 100 µM (inactive); in the assay on SR, > 100 µM (inactive); with HCT-15, more than 100 µM; in the assay with M14, > 100 µM (inactive).
In the case of `COc1ccc(C(SCCO)(c2ccccc2)c2ccc(OC)cc2)cc1`, the GI50 in the assay on HCC 2998 is 5.4 µM (inactive); in the assay on NCI/ADR-RES it was 15.9 µM (inactive); in the assay on KM12 it was 5.38 µM (inactive); in the assay with T47D it was 11.9 µM (inactive); in the assay on SF-539, 14.7 µM (inactive); in the assay on MOLT-4, 12.4 µM (inactive). Further, the GI50 in the assay with SK-MEL-28 was 16.3 µM (inactive); with UACC-62, 11.5 µM (inactive); with SNB-19, 8.26 µM (inactive); with MDA-MB-231, 9.64 µM (inactive); in the assay on CAKI-1, 21 µM (inactive); in the assay with COLO 205 it was 17.9 µM (inactive). Further, the GI50 with NCI-H522 is 10.8 µM (inactive); in the assay on HL-60, 21.3 µM (inactive); in the assay on SNB-75, 4.58 µM (inactive); with SN12C it was 14.5 µM (inactive); in the assay with SW-620, 15.3 µM (inactive); in the assay on HCT-15, 13.5 µM. Also, the GI50 with M14 was 9.31 µM (inactive).
In the case of `c1ccc(SC(Sc2ccccc2)c2ccc3c(c2)OCO3)cc1`, the GI50 with NCI/ADR-RES was > 100 µM (inactive); in the assay on KM12 it was > 100 µM (inactive); in the assay with T47D, > 100 µM (inactive); with MOLT-4 it was 38.1 µM (inactive); with SK-MEL-28, > 100 µM (inactive); with UACC-62 it was > 100 µM (inactive). In addition, the GI50 was > 100 µM (inactive) in the assay on SNB-19; > 100 µM (inactive) with MDA-MB-231; > 100 µM (inactive) in the assay with CAKI-1; 85.9 µM (inactive) in the assay on NCI-H522; > 100 µM (inactive) in the assay with HL-60; > 100 µM (inactive) in the assay with SN12C. Besides, the GI50 in the assay on SW-620 was > 100 µM (inactive); in the assay with SR, > 100 µM (inactive); in the assay on HCT-15 it was more than 100 µM; with M14, > 100 µM (inactive).
With `N#CC(C(=O)O)C(c1c(Cl)cccc1Cl)C(C#N)C(=O)O` (centres undefined), the GI50 with NCI/ADR-RES, in the assay on KM12, with T47D, in the assay on SF-539, in the assay with MOLT-4 and with SK-MEL-28 was > 100 µM (inactive) throughout. The GI50 in the assay with UACC-62, in the assay with SNB-19, in the assay with MDA-MB-231, with CAKI-1, in the assay on COLO 205 and with NCI-H522 was > 100 µM (inactive) in each case. Further, the GI50 is > 100 µM (inactive) with HL-60; > 100 µM (inactive) with SN12C; > 100 µM (inactive) with SW-620; > 100 µM (inactive) with SR; more than 100 µM with HCT-15; > 100 µM (inactive) with M14.
